In one assay the test system is hKV1.3. Type of assay: cell-based, human. The text has this: (§1) We, therefore, aimed at testing the pharmacological activity of sCm39 on a battery of various potassium and sodium ion channels. Among the tested channels were six members of human voltage-gated K^+ (hKV) channels from Shaker family, hKV1.1-hKV1.6 (Figure 3A–F) and three members of Ca^2+-activated potassium channel; hKCa2.2 (SK2, Figure 3I), the small-conductance Ca^2+-activated channel; hKCa3.1 (IKCa1, SK4. Figure 3J), the intermediate-conductance Ca^2+-activated channel expressed in T lymphocytes; and mKCa1.1 (BK, Slo1, MaxiK, Figure 3H), the large-conductance voltage- and Ca^2+-activated channel of mice. In addition, we also screened the effect of Cm39 on hKV11.1 (hERG1, Figure 3G), a voltage-gated cardiac K^+ channel, and two human voltage-gated sodium (hNaV) channels, hNaV1.4 (Figure 3K) and hNaV1.5 (Figure 3L), expressed in skeletal and cardiac muscles, respectively. These ion channels were heterologously expressed in the CHO or HEK cell lines except for KV1.3. Human peripheral T lymphocytes. They were stimulated with Phytohemagglutinin A (PHA) to increase the KV1.3 channel expression, and Ca^2+-free intracellular solution was used to avoid KCa3.1 channel activation. Appropriate depolarization protocols were used to record ionic currents in voltage-clamped cells (see Figure 3 insets and Material and Methods for details). Freshly dissolved sCm39 in extracellular solution was applied at 1 µM concentration on the cell using a custom-built micro-perfusion system at ~200 µL/min flow rate.
For the measurement of KV1.x, mKCa1.1 and NaV1.x currents the extracellular solution was composed of (in mM) 145 NaCl, 5 KCl, 2.5 CaCl2, 1 MgCl2, 10 HEPES and 5.5 glucose, pH 7.35. In the HK-150 and Na^+-free bath solution bath all Na^+ was substituted by K^+ or Choline-Cl, respectively, other ingredients remained unchanged. […]
Whole-cell currents were recorded in voltage-clamped cells following standard protocols by using a Multiclamp 700B amplifier connected to a computer with Axon Digidata1440 digitizer and for data acquisition, Clampex 10.7 software was used (Molecular Devices).

The target in a further assay is T1, hKV1.2 (Homo sapiens, UniProt P16389).
T1 construct: GFP (vector pCMV6-AC-GFP); host or cells: CHO cells, transient transfection
T1 sequence (P16389 whole entry): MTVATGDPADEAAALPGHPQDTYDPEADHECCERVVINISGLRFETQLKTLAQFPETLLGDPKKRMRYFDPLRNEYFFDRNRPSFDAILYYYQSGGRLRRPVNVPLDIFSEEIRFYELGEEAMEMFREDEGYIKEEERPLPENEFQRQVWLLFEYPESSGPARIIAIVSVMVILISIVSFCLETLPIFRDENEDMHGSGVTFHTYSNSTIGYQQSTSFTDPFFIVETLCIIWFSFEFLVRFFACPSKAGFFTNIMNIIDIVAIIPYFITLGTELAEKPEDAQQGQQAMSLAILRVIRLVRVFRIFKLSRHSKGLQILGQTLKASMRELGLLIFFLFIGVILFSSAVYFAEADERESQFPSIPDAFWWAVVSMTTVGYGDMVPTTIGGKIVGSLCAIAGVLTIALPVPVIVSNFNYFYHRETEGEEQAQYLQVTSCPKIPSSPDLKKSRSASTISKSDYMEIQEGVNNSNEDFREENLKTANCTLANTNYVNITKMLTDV
The assay is described as follows: Whole-cell patch-clamp, block of KV1.2 current. Type of assay: cell-based.
Source text: as §1
For comprehensive characterization of Cm39 activity on KV1.2, we determined the concentration–response of current inhibition by Cm39, the kinetic parameters of its binding and assessed the effect on voltage dependence of steady-state activation. The whole-cell KV1.2 currents were recorded in CHO cells using depolarization pulses to +50mV from −120mV holding potential (Vh) every 15 s. Since the activation kinetics of KV1.2 are highly variable, the duration of pulses was set on a cell-by-cell basis between 15–300 ms to allocate sufficient time for reaching maximum currents at the test potentials. […] The remaining current fractions (RCF = I/I0, where I0 is the peak current in the absence of the toxin, and I is the peak current at equilibrium block in the presence of sCm39 at a given concentration) were calculated and plotted as a function of toxin concentration.
Single-exponential decay functions were fitted to the normalized peak currents in the presence of each sCm39 concentration (Figure 4C, data points in red shades) to determine the time constant for the onset of block (τon, wash-in or association time constant). The dissociation time constant for the relief from block (τoff, wash-out time constant) was obtained by fitting a single-exponential rising function to the normalized peak currents in the wash-out procedure (Figure 4C, data point in black empty circles). Assuming a simple bimolecular interaction between the toxin and the channel, time constants for the onset and recovery from the block can be stated as follows:(1) τon=1/kon×[toxin]+koff , τoff=1/koff where kon represents the second-order association rate constant, koff indicates the first-order dissociation rate constant and [toxin] is the sCm39 concentration. […] The second-order rate constant of association (kon) was determined by fitting the 1/τon data points using linear regression with koff as the y-intercept.
A general note: In patch-clamp work, channel activity is measured electrically.

“Also recorded” adds a separate entry of the source.

`CC[C@H](C)[C@@H]1NC(=O)[C@H](C)NC(=O)[C@H](C)NC(=O)[C@H](CCCCN)NC(=O)[C@@H]2CSSC[C@@H](C(=O)N[C@@H](Cc3ccc(O)cc3)C(=O)N[C@@H](Cc3ccc(O)cc3)C(=O)O)NC(=O)[C@H](CCCCN)NC(=O)[C@@H]3CSSC[C@H](NC(=O)[C@H](CCC(=O)O)NC(=O)[C@H](CO)NC(=O)[C@H](CO)NC(=O)[C@H](CO)NC(=O)[C@H](CCCCN)NC(=O)[C@@H](NC(=O)[C@H](CCCCN)NC(=O)[C@H](Cc4c[nH]cn4)NC(=O)[C@H](CC(N)=O)NC(=O)[C@@H](NC(=O)[C@H](Cc4ccccc4)NC(=O)[C@@H](N)[C@@H](C)O)[C@@H](C)CC)CSSC[C@H](NC(=O)[C@H](CCCCN)NC(=O)CNC(=O)[C@H](CO)NC(=O)[C@H](C)NC(=O)[C@H](CCCNC(=N)N)NC(=O)CNC1=O)C(=O)N[C@@H]([C@@H](C)CC)C(=O)N[C@@H](CC(N)=O)C(=O)N[C@@H](CO)C(=O)N[C@@H]([C@@H](C)O)C(=O)N3)C(=O)N[C@@H](CC(C)C)C(=O)N1CCC[C@H]1C(=O)N[C@@H](C)C(=O)N2` [Cm39]: the decrease in current in the assay on hKV1.3 (1 µM, PHA-activated human peripheral T lymphocytes, 3−5 min, n = 3−5) is given as less than 3%. For the same compound, in the assay with hKV1.3 (1 μM, human peripheral T lymphocytes), the “inhibition (in words)” value was “does not inhibit; also recorded: did not show any effect”. Further, the inhibition (in general, how much of the control response was suppressed) at 0.005 µM on hKV1.2 (5 nM, CHO cells, pulses to +50 mV, read-out: inhibition of KV1.2 current at equilibrium block) is roughly 5%. The inhibition at 0.02 µM on hKV1.2 (20 nM, CHO cells, pulses to +50 mV, read-out: inhibition of KV1.2 current at equilibrium block) was roughly 22%. In addition, the inhibition at 0.05 µM at hKV1.2 (50 nM, CHO cells, pulses to +50 mV, read-out: inhibition of KV1.2 current at equilibrium block) was roughly 43%. In addition, at hKV1.2 (100 nM, CHO cells, pulses to +50 mV, read-out: inhibition of KV1.2 current at equilibrium block), the inhibition at 0.1 µM is roughly 62%. For the same compound, at hKV1.2 (250 nM, CHO cells, pulses to +50 mV, read-out: inhibition of KV1.2 current at equilibrium block), the inhibition at 0.25 µM is roughly 78%. In addition, the inhibition at 0.5 µM at hKV1.2 (500 nM, CHO cells, pulses to +50 mV, read-out: inhibition of KV1.2 current at equilibrium block) was roughly 87%. Moreover, the “reduction of current at equilibrium block” value at hKV1.2 (1 µM, CHO cells, n = 3−5 (Figure 3M)) is 95%. Moreover, the “toxin association and dissociation kinetics” value is listed as “fast” on hKV1.2 (5−500 nM) and “very fast” on hKV1.2 (5−500 nM, listed as sCm39). Also, the “selectivity for KV1.2 over KV1.3” value on hKV1.2 (KV1.2 over KV1.3) was greater than 15 fold. Also, the Hill coefficient – broadly, the slope factor of the fitted curve – on hKV1.2 (concentration-response of KV1.2 block, CHO cells) is recorded as 0.96. Moreover, at hKV1.2 (slope of linear regression of 1/τon vs concentration, r^2 = 0.97, CHO cells, read-out: second-order association rate constant kon), the kon – broadly, a measure of how fast the partners come together – amounted to 215000 M⁻¹ s⁻¹. In addition, at hKV1.2 (wash-out with toxin-free solution, 5−500 nM), the “reversibility of KV1.2 block” value is given as “fully reversible”. For the same compound, the koff at hKV1.2 (wash-out, single-exponential fit, CHO cells, simple bimolecular interaction assumed, read-out: dissociation rate constant koff (1/τoff)) was 0.019 ± 0.0013 s⁻¹.

The values are drawn from paper PMC9866218, “Characterization and Chemical Synthesis of Cm39 (α-KTx 4.8): A Scorpion Toxin That Inhibits Voltage-Gated K^+ Channel KV1.2 and Small- and Intermediate-Conductance Ca^2+-Activated K^+ Channels KCa2.2 and KCa3.1” (Toxins, 2023).
